These results are taken from patent US12410161B2, “Tetrahydrobenzo-quinoline sulfonamides derivative compounds” (UCB Biopharma SRL, priority 2019, dated 2025).

The target of this test is T1, IgE-Tb binding to soluble IgE receptor FcεRIα-Y131A-AF488 (Homo sapiens, UniProt P0DOX4, N265Q/N371Q).
T1 construct: 86 nmoles of IgE-Fc(N265Q, N371Q) (Young et al., 1995)
T1 sequence (P0DOX4 224-547 N265Q/N371Q limits assumed): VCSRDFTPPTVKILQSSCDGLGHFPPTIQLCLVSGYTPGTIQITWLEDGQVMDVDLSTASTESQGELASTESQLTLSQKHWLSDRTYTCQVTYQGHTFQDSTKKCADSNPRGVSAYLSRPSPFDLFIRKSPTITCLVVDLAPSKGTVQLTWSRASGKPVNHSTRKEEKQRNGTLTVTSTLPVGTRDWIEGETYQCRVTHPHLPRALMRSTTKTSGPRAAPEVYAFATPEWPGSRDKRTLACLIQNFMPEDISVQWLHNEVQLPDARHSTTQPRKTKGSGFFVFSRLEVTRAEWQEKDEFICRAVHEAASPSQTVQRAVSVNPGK
As to the kind of experiment: In vitro FRET assay of IgE-Tb binding to FcεRIα receptor (protocol for most examples, 2 hours incubation). To be noted: 5 nM IgE-Tb, 25 nM FcεRIα-Y131A-AF488; incubated 2 hours at room temperature; read-out: FRET IC50 range. As to the method: In vitro Biochemical Assay: Protocol for preparation of IgE-Tb reagent 86 nmoles of […]) (Young et al., 1995) at 172 μM in 100 mM NaHCO3, pH 9.5 was added to 1 mg of LanthaScreenTM Amine Reactive Tb Chelate (ThermoFisher catalogue number PV3583) and incubated for 16 hours at 20° C. The material was then buffer exchanged into Phosphate Buffered Saline (being, 137 mM NaCl, 2.7 mM KCl, 10 mM Na2HPO4, 1.8 mM K2HPO4, pH 7.4) and the material quantified and the degree of Tb conjugation determined by measuring the absorption at 280 nm and 343 nm. The integrity of the conjugated material was determined by analytical size exclusion chromatography on a 5200 HR 10×300 column (GE Healthcare). Typical conjugation ratios were 4:1 Tb:IgE-Fc. • Young R J., Owens, […]., Chan C M W., Shi J., Hide […]., Henry A J., Sutton B J., and Gould H J (1995) Protein Engineering 8:193-199 Protocol for preparation of […] reagent […] Oxidation was quenched with the addition of 40 μl of ethanediol and incubation for 60 minutes at 22° C. The protein was buffer exchanged in to conjugation buffer (50 mM NaHCO3, 150 mM NaCl, pH 9.5) and concentrated to 750 μM. 175 nmoles of protein was added to 1 mg of Alexa FluorTM 488 hydrazide (Invitrogen) and incubated for 16 hours at 22° C. […] The protein was buffer exchanged into Phosphate Buffered Saline (being, 137 mM NaCl, 2.7 mM KCl, 10 mM Na2HPO4, 1.8 mM K2HPO4, pH 7.4) and the material quantified and the degree of Alexa FluorTM 488 conjugation determined by measuring the absorption at 280 nm and 495 nm. The integrity of the conjugated material was determined by analytical size exclusion chromatography on a 5200 HR 10×300 column (GE Healthcare). Typical conjugation ratios were 2:1 Alexa FluorTM488: sFcεR1α • Cook J P D., Henry […]., Owens R J., Sutton B J., and Gould H J (1997) Biochemistry 36:15579-15588 The aim was to measure binding of IgE-Tb to receptor, and the inhibition thereof by compounds, using an in vitro Fluorescence Resonance Energy Transfer (FRET) Assay. Reagents FRET reagents used were IgE labelled with Terbium (FRET donor), and soluble IgE receptor FcεRIα with a Y131A mutation, labelled with Alexa FluorTM 488 (FRET acceptor). Unlabelled FcεRIα was also used to generate a background control. The assay buffer consisted of 20 mM Tris pH7.2, 150 mM NaCl, and 0.002% Tween, 1% DMSO. Assay Reaction For most of the examples the assay was conducted according to the following: Each assay reaction was conducted in a volume of 25 μl in a 384-well half-volume plate. 10 point compound serial dilutions (3-fold) were generated in DMSO at a concentration of ×50 that of the final assay concentration (FAC). Compound solutions were then prepared by IgE-Tb diluting 10-fold in assay buffer. For the assay, 5 μl of diluted compound was added to 10 μl of IgE-Tb, followed by addition of 10111 FcεRIα-Y131A-AF488. FRET reagents FACs were 5 nM IgE-Tb, 25 nM FcεRIα-Y131A-AF488. Usually the top FAC of compound in the assay was 10 μM. The final DMSO concentration was 2%. The minimum signal (MIN) was measured by adding 5 μl unlabelled FcεRIα at 1 μM (FAC=200 nM) to the FRET reagents. The maximum FRET signal (MAX) was measured in wells containing FRET reagents but no compound. The assay was incubated for 2 hours at room temperature, protected from light and evaporation, and with gentle agitation. FRET Measurement Measurement of FRET for each well was carried out by exciting at 330 nm and measuring emission at 495/520 nm using an Envision plate reader (Perkin Elmer). FRET ratio was calculated as follows: Emission at 520/Emission at 495×1000. The FRET ratio was used for the data analysis. Data Analysis Z' was calculated as follows (σ=standard deviation and μ=mean): 1-((3×σMAX)+(3×σMIN))/(μMAX-/μMIN) Z' above 0.5 was considered a good assay. Background signal (MIN) was subtracted from all wells. Using the background subtracted values, the percent inhibition by compound in each test-well was calculated as follows: 100-Test-well FRET ratio/MAX FRET ratio×100. […]
A word on the IC50: it is the concentration that inhibits the measured activity by half. As for `Cc1cc(Nc2nncn2C2CCc3cc4cnc(C5CC5)cc4c(S(=O)(=O)NCC(C)(C)F)c3C2)n(C)n1` (stereo not shown) [Example 2, 3-cyclopropyl-7-[3-[(2,5-dimethylpyrazol-3-yl)amino]-1,2,4-triazol-4-yl]-N-(2-fluoro-2-methylpropyl)-6,7,8,9-tetrahydrobenzo[g]isoquinoline-5-sulfonamide], the half-inhibitory concentration (IC50) lay within 100 to 1000 nM.

As to `Cc1ccc(N/C(=N/C#N)NC2CCc3cc4cnc(C5CC5)cc4c(S(=O)(=O)NCC(C)(C)F)c3C2)cc1` (stereo not shown) [Example 3, 2-Cyano-1-[3-cyclopropyl-5-[(2-fluoro-2-methyl-propyl)sulfamoyl]-6,7,8,9-tetrahydrobenzo[g]isoquinolin-7-yl]-3-(p-tolyl)guanidine], the IC50 was 100 to 1000 nM. The value for `Cc1nnc(-c2ccc(NC3CCc4cc5cnc(C6CC6)cc5c(S(=O)(=O)NCC(C)(C)F)c4C3)cn2)o1` (stereo not shown) [Example 4, 3-cyclopropyl-N-(2-fluoro-2-methylpropyl)-7-[[6-(5-methyl-1,3,4-oxadiazol-2-yl)pyridin-3-yl]amino]-6,7,8,9-tetrahydrobenzo[g]isoquinoline-5-sulfonamide] was 100 to 1000 nM; that for `CC(C)CNS(=O)(=O)c1c2c(cc3cnc(C4CC4)cc13)CCC(C(=O)NCC(C)(C)C)C2` (stereo not shown) [Example 5, 3-cyclopropyl-N-(2,2-dimethylpropyl)-5-(2-methylpropylsulfamoyl)-6,7,8,9-tetrahydrobenzo[g]isoquinoline-7-carboxamide] was 50 to 100 nM. The same measure for `CC(C)CNS(=O)(=O)c1c2c(cc3cnc(C4CC4)cc13)CC(C(=O)NCC(C)(C)C)CC2` (stereo not shown) [Example 6, 3-cyclopropyl-N-(2,2-dimethylpropyl)-5-(2-methylpropylsulfamoyl)-6,7,8,9-tetrahydrobenzo[g]isoquinoline-8-carboxamide]: 100 to 2000 nM; for `CC(C)CNS(=O)(=O)c1c2c(cc3cnc(C4CC4)cc13)CC(C(=O)NCc1ccccc1)CC2` (stereo not shown) [Example 7, N-benzyl-3-cyclopropyl-5-(2-methylpropylsulfamoyl)-6,7,8,9-tetrahydrobenzo[g]isoquinoline-8-carboxamide]: 100 to 1000 nM. The same measure for `CC(C)CNS(=O)(=O)c1c2c(cc3cnc(C4CC4)cc13)CCC(C(=O)NCc1ccccc1)C2` (stereo not shown) [Example 8, N-benzyl-3-cyclopropyl-5-(2-methylpropylsulfamoyl)-6,7,8,9-tetrahydrobenzo[g]isoquinoline-7-carboxamide]: 1 to 50 nM; for `Cc1ccc2c(C(=O)NC3CCc4cc5cnc(C6CC6)cc5c(S(=O)(=O)NCC(C)C)c4C3)c[nH]c2c1` (stereo not shown) [Example 11, N-[3-cyclopropyl-5-(2-methylpropylsulfamoyl)-6,7,8,9-tetrahydrobenzo[g]isoquinolin-7-yl]-6-methyl-1H-indole-3-carboxamide]: 100 to 1000 nM.

In the case of `Cc1cc(-n2cnnc2NC2CCc3cc4cnc(C5CC5)cc4c(S(=O)(=O)NCC(C)C)c3C2)n(C)n1` (stereo not shown) [Example 12, 3-cyclopropyl-7-[[4-(2,5-dimethylpyrazol-3-yl)-1,2,4-triazol-3-yl]amino]-N-(2-methylpropyl)-6,7,8,9-tetrahydrobenzo[g]isoquinoline-5-sulfonamide], the IC50 was 100 to 1000 nM. The same measure for `Cc1cc(Nc2nncn2C2CCc3cc4cnc(C5CC5)cc4c(S(=O)(=O)NCC(C)C)c3C2)n(C)n1` (stereo not shown) [Example 13, 3-cyclopropyl-7-[3-[(2,5-dimethylpyrazol-3-yl)amino]-1,2,4-triazol-4-yl]-N-(2-methylpropyl)-6,7,8,9-tetrahydrobenzo[g]isoquinoline-5-sulfonamide]: 1 to 50 nM. With `CC(C)CNS(=O)(=O)c1c2c(cc3cnc(C4CC4)cc13)CCC(n1cnnc1Nc1cccnc1)C2` (stereo not shown) [Example 14, 3-cyclopropyl-N-(2-methylpropyl)-7-[3-(pyridin-3-ylamino)-1,2,4-triazol-4-yl]-6,7,8,9-tetrahydrobenzo[g]isoquinoline-5-sulfonamide], the IC50 lay within 1 to 50 nM.

With `CC(C)CNS(=O)(=O)c1c2c(cc3cnc(C4CC4)cc13)CCC(Nc1nncn1-c1cccnc1)C2` (stereo not shown) [Example 15, 3-cyclopropyl-N-(2-methylpropyl)-7-[(4-pyridin-3-yl-1,2,4-triazol-3-yl)amino]-6,7,8,9-tetrahydrobenzo[g]isoquinoline-5-sulfonamide], the concentration for half-maximal inhibition (IC50) lay within 100 to 1000 nM. Turning to `CC(C)CNS(=O)(=O)c1c2c(cc3cnc(C4CC4)cc13)CCC(n1cnnc1NCC1CC1)C2` (stereo not shown) [Example 16, 3-cyclopropyl-7-[3-(cyclopropylmethylamino)-1,2,4-triazol-4-yl]-N-(2-methylpropyl)-6,7,8,9-tetrahydrobenzo[g]isoquinoline-5-sulfonamide], the 50% inhibitory concentration (IC50) lay within 1 to 50 nM. The same measure for `Cc1nnc(-c2ccc(N[C@@H]3CCc4cc5cnc(C6CC6)cc5c(S(=O)(=O)NCC(C)C)c4C3)cn2)o1` [Example 17, (7R)-3-cyclopropyl-7-[[6-(5-methyl-1,3,4-oxadiazol-2-yl)pyridin-3-yl]amino]-N-(2-methylpropyl)-6,7,8,9-tetrahydrobenzo[g]isoquinoline-5-sulfonamide]: 100 to 1000 nM.

On to `Cc1nnc(-c2ccc(N[C@H]3CCc4cc5cnc(C6CC6)cc5c(S(=O)(=O)NCC(C)C)c4C3)cn2)o1` [Example 18, (7S)-3-cyclopropyl-7-[[6-(5-methyl-1,3,4-oxadiazol-2-yl)pyridin-3-yl]amino]-N-(2-methylpropyl)-6,7,8,9-tetrahydrobenzo[g]isoquinoline-5-sulfonamide], for which the IC50 was in the range of 50 to 100 nM. `CCNc1c(NC2CCc3cc4cnc(C5CC5)cc4c(S(=O)(=O)NCC(C)C)c3C2)c(=O)c1=O` (stereo not shown) [Example 19, 3-cyclopropyl-7-[[2-(ethylamino)-3,4-dioxocyclobuten-1-yl]amino]-N-(2-methylpropyl)-6,7,8,9-tetrahydrobenzo[g]isoquinoline-5-sulfonamide]: the IC50 lay within 1 to 50 nM. The same measure for `Cc1cc(-n2ccnc2NC2CCc3cc4cnc(C5CC5)cc4c(S(=O)(=O)NCC(C)C)c3C2)n(C)n1` (stereo not shown) [Example 20, 3-cyclopropyl-74(1-(2,5-dimethylpyrazol-3-yl)imidazol-2-yl]aminol-N-(2-methylpropyl)-6,7,8,9-tetrahydrobenzo[g]isoquinoline-5-sulfonamide]: 100 to 1000 nM; for `CC(C)CNS(=O)(=O)c1c2c(cc3cnc(C4CC4)cc13)CCC(c1ncc(-c3cccnc3)[nH]1)C2` (stereo not shown) [Example 21, 3-cyclopropyl-N-(2-methylpropyl)-7-(5-pyridin-3-yl-1H-imidazol-2-yl)-6,7,8,9-tetrahydrobenzo[g]isoquinoline-5-sulfonamide]: 1 to 50 nM; for `CC(C)CNS(=O)(=O)c1c2c(cc3cnc(C4CC4)cc13)CC(c1ncc(-c3cccnc3)[nH]1)CC2` (stereo not shown) [Example 22, 3-cyclopropyl-N-(2-methylpropyl)-8-(5-pyridin-3-yl-1H-imidazol-2-yl)-6,7,8,9-tetrahydrobenzo[g]isoquinoline-5-sulfonamide]: 100 to 1000 nM.
